Results on nine compounds are retold here after patent US9126980B2, “Compounds for inhibiting the interaction of BCL2 with binding partners” (Novartis AG, priority 2011, dated 2015).

Where two headings read alike, the source gives them in different places.

Assay [1] has as its target BCL-2 binding to biotinylated BAD peptide (Homo sapiens (Human), UniProt P10415). As to the kind of experiment: SPR (Biacore) solution inhibition assay, BCL-2 binding to BAD peptide surface. As to conditions: read-out: BCL2_SPR IC50 BAD. From the text:
(§1) The present method includes utility of a Surface plasmon resonance (SPR)-based biosensor (Biacore™′ GE Healthcare, Uppsala, Sweden) to characterize BCL-2 inhibitors.
(§2) Biacore™ utilizes the phenomenon of surface plasmon resonance (SPR) to detect and measure binding interactions. In a typical Biacore experiment, one of the interacting molecules (ligand) is immobilized on a flexible dextran matrix while the interacting partner (analyte) is allowed to flow across that surface. A binding interaction results in an increase in mass on the sensor surface and a corresponding direct change in the refractive index of the medium in the vicinity of the sensor surface. Changes in refractive index or signal are recorded in resonance units (R.U.) Signal changes due to association and dissociation of complexes are monitored in a non-invasive manner, continuously and in real-time, the results of which are reported in the form of a sensorgram.
(§3) The SPR assay is configured to examine solution inhibition of BCL-2 binding to peptide derivatized sensor surfaces to generate IC50 values as a measure of inhibitor potency.
(§4) Solution Inhibition Assay Format:
(§5) Biacore™ A100 (GE Healthcare, Uppsala, Sweden) was used to conduct all experiments reported herein. Sensor surface preparation and all interaction analyses experiments were performed at 25° C. Reagents were purchased from GE Healthcare. Running buffer containing 10 mM Hepes, pH7.4, 150 mM sodium chloride, 1.25 mM Dithiothreitol, 3% Dimethyl sulfoxide and 0.05% polysorbate 20 were utilized throughout all analyses.
(§6) Biotinylated BAK, BAD and NOXA peptides were diluted to 10 nM in running buffer and captured onto a sensor surface pre-derivatized with streptavidin (sensor chip SA) to peptide surface densities in the range 50-100 R.U. Peptide captured surfaces were blocked with 500 μM PEO2-Biotin.
(§7) Interaction analyses were performed by first equilibrating each sample within a 6 point three fold compound dilution series in the range […] with 56 nM BCL-2 for one hour during instrument start-up procedures. Protein compound mixtures were then injected over each peptide surface in parallel for 60 seconds at a flow-rate of 30 μL/min. 56 nM BCL-2 control samples were also prepared and run at regular intervals during the assay. Surface regeneration was performed at the end of each analysis cycle by two 30 second injections of 10 mM Glycine, pH 2.5, 1M Sodium Chloride, 0.05% polysorbate 20. Samples and control compound samples were run in duplicate and controls are also run at regular intervals during the assay to monitor surface and assay performance.
(§8) Data analyses are carried out using Biacore™ A100 evaluation software v1.1 to validate assay quality. Binding level report points were used relative to BCL-2 control samples to calculate % inhibition values for each compound protein mixture. […] The range of data shown in table 1 represents the high and low IC50 values obtained from multiple experiments.

The target in assay [2] is BCL-2 binding to biotinylated BAK peptide (Homo sapiens (Human), UniProt P10415). The experiment in a line: SPR (Biacore) solution inhibition assay, BCL-2 binding to BAK peptide surface. The note with it: read-out: BCL2_SPR IC50 BAK.
Excerpt: as §1, §2, §3, §4, §5, §6, §7, §8

Setting [3] is: high and low IC50 values from multiple experiments, 56 nM BCL-2, BAD peptide sensor surface, 25° C.
[4] abbreviates: high and low IC50 values from multiple experiments, 56 nM BCL-2, BAK peptide sensor surface, 25° C.

Sequence of BCL-2 binding to biotinylated BAD peptide (P10415 whole entry): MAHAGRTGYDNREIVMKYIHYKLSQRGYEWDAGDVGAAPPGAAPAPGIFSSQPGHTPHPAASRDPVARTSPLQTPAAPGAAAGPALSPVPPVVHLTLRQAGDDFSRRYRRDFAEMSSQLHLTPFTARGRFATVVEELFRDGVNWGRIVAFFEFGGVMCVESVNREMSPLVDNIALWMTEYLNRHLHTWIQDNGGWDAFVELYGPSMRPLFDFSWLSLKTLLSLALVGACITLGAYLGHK
Sequence of BCL-2 binding to biotinylated BAK peptide (P10415 whole entry): as above

As to `CCCCN(CCCC)C(=O)c1cc(C)n(-c2ccc(NS(=O)(=O)c3ccc(NC(C)=O)c(Cl)c3)cc2C(=O)N2Cc3ccccc3C[C@H]2CO)n1` [Example 25], the values for the IC50 in assay [1] (setting [3]) and in assay [2] (setting [4]) were 418 to 436 nM and 252 to 257 nM, respectively.

Regarding `CCCCN(CCCC)C(=O)c1cc(C)n(-c2ccc(NS(=O)(=O)c3ccc(CNC(=O)c4ccc(Cl)cc4)s3)cc2C(=O)N2Cc3ccccc3C[C@H]2CO)n1` [Example 30], the IC50 in assay [2] (setting [4]) fell in the range of 2280 to 2510 nM. Still for that read-out and setting: to `CCCCN(CCCC)C(=O)c1cc(C)n(-c2ccc(NS(=O)(=O)c3ccccc3Cl)cc2C(=O)N2Cc3ccccc3C[C@H]2CO)n1` [Example 14] belongs 435 to 683 nM.

`CCCCN(CCCC)C(=O)c1cc(C)n(-c2ccc(NS(=O)(=O)c3ccc(Oc4ccccc4C)cc3)cc2C(=O)N2Cc3ccccc3C[C@H]2CO)n1` [Example 10]: the IC50 in assay [1] (setting [3]) was more than 16000 nM; in assay [2] (setting [4]), 3020 to 3680 nM.

With `CCCCN(CCCC)C(=O)c1cc(C)n(-c2ccc(NS(=O)(=O)c3ccccc3)cc2C(=O)N2Cc3ccccc3C[C@H]2CO)n1` (stereo in doubt) [Example 1, N,N-dibutyl-1-(2-(3-(hydroxymethyl)-1,2,3,4-tetrahydroisoquinoline-2-carbonyl)-4-(phenylsulfonamido)phenyl)-5-methyl-1H-pyrazole-3-carboxamide], the IC50 in assay [1] lay in the range of 629 to 756 nM; in assay [2], 474 to 564 nM.

Turning to `CCCCN(CCCC)C(=O)c1cc(C)n(-c2ccc(NS(=O)(=O)c3ccc(-c4ccc(Cl)cc4)cc3)cc2C(=O)N2Cc3ccccc3C[C@H]2CO)n1` [Example 9], the IC50 in assay [1] (setting [3]) was more than 16000 nM. Turning to `CCCCN(CCCC)C(=O)c1cc(C)n(-c2ccc(NS(C)(=O)=O)cc2C(=O)N2Cc3ccccc3C[C@H]2CO)n1` [Example 2], the IC50 was 367 to 387 nM in assay [1] and 260 to 330 nM in assay [2]. As for `CCCCN(CCCC)C(=O)c1cc(C)n(-c2ccc(NS(=O)(=O)c3cc(Cl)ccc3F)cc2C(=O)N2Cc3ccccc3C[C@H]2CO)n1` [Example 17], the IC50 in assay [2] (setting [4]) was in the range of 828 to 871 nM. As for `CCCCN(CCCC)C(=O)c1cc(C)n(-c2ccc(NS(=O)(=O)C(C)C)cc2C(=O)N2Cc3ccccc3C[C@H]2CO)n1` [Example 3], the figures for the half-maximal inhibitory concentration (IC50) in assay [1] and in assay [2] were 126 to 127 nM and 87.8 to 93 nM, respectively.
